IC50 data for five compounds are collected here from patent US5112864A, “PLA2 inhibitors as antiinflammatories” (G. D. Searle & Co., priority 1991, dated 1992).

This experiment concerns the target T1, Human synovial fluid phospholipase A2 (HSF-PLA2) (Homo sapiens, UniProt P14555).
T1 construct: Human synovial fluid phospholipase A2 was purified approximately 5000 fold; from tissue; host or cells: human synovial fluid
T1 sequence (P14555 21-144): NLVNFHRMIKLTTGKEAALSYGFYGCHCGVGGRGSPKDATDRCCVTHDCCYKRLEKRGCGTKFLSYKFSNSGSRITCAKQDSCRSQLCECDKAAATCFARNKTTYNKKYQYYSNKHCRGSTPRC
Put plainly: Human synovial fluid phospholipase A2 (HSF-PLA2) assay, [14C]-oleate-labeled autoclaved E. coli substrate. In kind it is biochemical. Conditions: purified HSF-PLA2; pH 7.0, 5 mM CaCl2; 5 min pre-incubation; 37° C., 30 minutes; mean. On the procedure: Human synovial fluid phospholipase A2 was purified approximately 5000 fold following the procedures of Franson et al., Lung 160, 275-284 (1982) and Vishwanath et al., Inflammation 12(6), 549-56 (1988). Following purification the enzyme activity was measured by a modified methodology using [^14 C]-oleate-labeled, autoclaved E. coli as the substrate as also shown in the above noted references. The assay was performed in a final volume of 100 μl containing 50 mM HEPES (pH 7.0), 150 mM NaCl, 5mM CaCl2, 7 n mole [^14 C]-oleate-labeled E. coli phospholipid and with or without the compound from one of the examples herein undergoing an assay. The compound or control vehicle was pre-incubated with the PLA2 for 5 minutes followed by addition of the E. coli substrate to initiate the reaction. The reaction was maintained at 37° C. for 30 minutes and then terminated by the addition of 2 ml tetrahydrofuran (THF). The reaction product, [^14 C]-oleic acid, was extracted using a 1 ml Bond Elut-NH2 Solid phase extraction column. The IC50 value for the compound (mean -S.E.) is given in the following Table I and represents the concentration of the indicated compound required to inhibit 50% of the PLA2 activity.

In the case of `CCCCCCCCCCCCCC#CC(=O)Cc1cccc(C(=O)OC)c1` [Example 5, methyl 3-(2-oxo-3-heptadecynyl) benzoate], half-maximal inhibition (IC50) was put at 6 µM.

`COC(=O)c1cccc(CC(=O)C#CCCCCCCCCCOc2ccccc2)c1` [Example 7, methyl 3-(2-oxo-13-phenoxy-3-tridecynyl)benzoate] registered a 50% inhibitory concentration (IC50) of 2.75 µM. Turning to `COCCCCCCCCCC#CC(=O)Cc1cccc(C(=O)OC)c1` [Example 9, methyl 3-(2-oxo-13-methoxy-3-tridecynyl)benzoate], the half-inhibitory concentration (IC50) was determined as 20.6 µM.

`CCCCCCCCCCCCCC#CC(=O)Cc1ccccc1C(=O)OC` [Example 11, methyl 2-(2-oxo-3heptadecynyl)benzoate] showed an IC50 of 17.4 µM. As for `CCCCCCCCCCCCCC#CC(=O)Cc1ccc(C(=O)OC)cc1` [Example 14, methyl 4-(2-oxo-3heptadecynyl)benzoate], the IC50 came out at 2.2 µM.
